In US7214690B2, “Tricyclic quinolinone and tricyclic quinoline androgen receptor modulator compounds and methods” (Ligand Pharmaceuticals Incorporated, priority 2001, dated 2007):
Where two headings read alike, the source gives them in different places.

Columns and labels:
human AR = molecular target: T1, human AR (Homo sapiens, UniProt P10275); experiment: co-transfection assay, hAR in CV-1 cells (MTV-LUC reporter); type: cell-based
T1 construct: expressed in transfected cells; host or cells: CV-1 cells (African green monkey kidney fibroblasts)
T1 sequence (P10275 1-920): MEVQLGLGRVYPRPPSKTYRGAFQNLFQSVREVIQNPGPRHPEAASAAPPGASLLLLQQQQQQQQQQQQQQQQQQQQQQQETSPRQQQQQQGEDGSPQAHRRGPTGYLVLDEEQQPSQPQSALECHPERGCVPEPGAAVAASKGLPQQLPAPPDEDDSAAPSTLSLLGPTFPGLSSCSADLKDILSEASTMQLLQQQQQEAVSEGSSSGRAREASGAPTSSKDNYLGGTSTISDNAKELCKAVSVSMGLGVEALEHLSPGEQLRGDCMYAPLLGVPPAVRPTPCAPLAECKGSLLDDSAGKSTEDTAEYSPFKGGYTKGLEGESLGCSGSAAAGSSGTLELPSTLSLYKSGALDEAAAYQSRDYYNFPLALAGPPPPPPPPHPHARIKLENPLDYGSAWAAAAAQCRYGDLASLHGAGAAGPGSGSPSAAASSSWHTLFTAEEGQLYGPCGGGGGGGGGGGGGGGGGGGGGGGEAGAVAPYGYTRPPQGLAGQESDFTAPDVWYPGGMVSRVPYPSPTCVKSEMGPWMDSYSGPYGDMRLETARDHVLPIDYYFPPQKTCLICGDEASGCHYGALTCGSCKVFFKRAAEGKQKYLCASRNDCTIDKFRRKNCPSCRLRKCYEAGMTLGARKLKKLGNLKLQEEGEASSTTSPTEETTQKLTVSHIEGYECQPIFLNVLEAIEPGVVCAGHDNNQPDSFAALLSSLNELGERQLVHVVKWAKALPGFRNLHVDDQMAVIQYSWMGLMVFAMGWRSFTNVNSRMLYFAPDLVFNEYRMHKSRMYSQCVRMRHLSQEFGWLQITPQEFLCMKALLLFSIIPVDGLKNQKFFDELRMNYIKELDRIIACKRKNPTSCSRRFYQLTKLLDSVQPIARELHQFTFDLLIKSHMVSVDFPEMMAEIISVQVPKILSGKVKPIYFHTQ
From the text: The co-transfection assay provides a method for identifying functional agonists and partial agonists that mimic, or antagonists that inhibit, the effect of native hormones and quantifying their activity for responsive IR proteins. In this regard, the co-transfection assay mimics an in vivo system in the laboratory. Importantly, activity in the co-transfection assay correlates very well with known in vivo activity, such that the co-transfection assay functions as a qualitative and quantitative predictor of a tested compounds in vivo pharmacology. , See e.g., T. Berger et al. 41 J. Steroid Biochem. Molec.
(§1) CV-1 cells (African green monkey kidney fibroblasts) were cultured in the presence of Dulbecco's Modified Eagle Medium (DMEM) supplemented with 10% charcoal resin-stripped fetal bovine serum (CH-FBS) then transferred to 96-well microtiter plates one day prior to transfection.
The reporter plasmid, MTV-LUC, contains the cDNA for firefly luciferase (LUC) under control of the mouse mammary tumor virus (MTV) long terminal repeat, a conditional promoter containing an androgen response element. See e.g., Berger et al. supra. In addition, pRS-β-Gal, coding for constitutive expression of E. coli β-galactosidase (β-Gal), was included as an internal control for evaluation of transfection efficiency and compound toxicity.
(§2) Three to four replicates were used for each sample.
(§3) After 40 hours, the cells were washed with PBS, lysed with a Triton X-100-based buffer and assayed for LUC and β-Gal activities using a luminometer or spectrophotometer, respectively. For each replicate, the normalized response (NR) was calculated as: LUC response/β-Gal rate • where β-Gal rate=β-Gal/β-Gal incubation time.

MR = molecular target: T2, MR (Homo sapiens, UniProt P08235); experiment: co-transfection assay, MR; type: cell-based
T2 construct: expressed in transfected cells; host or cells: background cell substantially devoid of endogenous IRs (CV-1 described for the co-transfection assay)
T2 sequence (P08235 1-984): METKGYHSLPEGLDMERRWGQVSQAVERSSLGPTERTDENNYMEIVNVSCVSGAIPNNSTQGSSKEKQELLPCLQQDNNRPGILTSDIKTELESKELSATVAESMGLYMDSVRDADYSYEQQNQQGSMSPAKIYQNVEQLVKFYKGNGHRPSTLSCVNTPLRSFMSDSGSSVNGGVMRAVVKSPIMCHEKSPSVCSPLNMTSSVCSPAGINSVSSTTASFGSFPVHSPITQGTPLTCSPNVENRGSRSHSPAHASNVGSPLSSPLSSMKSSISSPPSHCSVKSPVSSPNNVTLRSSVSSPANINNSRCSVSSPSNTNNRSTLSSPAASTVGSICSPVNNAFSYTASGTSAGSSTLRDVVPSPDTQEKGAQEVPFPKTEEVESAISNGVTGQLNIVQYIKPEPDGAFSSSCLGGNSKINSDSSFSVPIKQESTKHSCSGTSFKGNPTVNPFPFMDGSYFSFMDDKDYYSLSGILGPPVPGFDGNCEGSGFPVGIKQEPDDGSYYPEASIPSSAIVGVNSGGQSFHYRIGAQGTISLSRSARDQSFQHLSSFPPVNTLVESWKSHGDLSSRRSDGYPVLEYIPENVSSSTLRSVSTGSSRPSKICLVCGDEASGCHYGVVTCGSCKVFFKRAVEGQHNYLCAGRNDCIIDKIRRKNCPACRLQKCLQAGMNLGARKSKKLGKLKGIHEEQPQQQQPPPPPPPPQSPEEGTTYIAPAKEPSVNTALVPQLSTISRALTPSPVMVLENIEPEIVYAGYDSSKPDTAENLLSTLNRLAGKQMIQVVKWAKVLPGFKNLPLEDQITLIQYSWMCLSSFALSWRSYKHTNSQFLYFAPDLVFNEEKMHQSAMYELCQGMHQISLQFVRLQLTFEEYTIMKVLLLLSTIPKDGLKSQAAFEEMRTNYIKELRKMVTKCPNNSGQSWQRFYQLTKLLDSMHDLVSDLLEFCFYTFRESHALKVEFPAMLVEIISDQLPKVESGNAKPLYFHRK
Method: as §1, §2, §3

[1] = agonist mode, luciferase production relative to DHT, hAR in CV-1 cells
[2] = antagonist mode, maximal inhibition of DHT-induced luciferase production, hAR in CV-1 cells
[3] = read-out: AR-wt Potency Antag, antagonist mode, Table 2

Structure (SMILES)	EC50 (human AR) [nM]	AR Agonist CV-1 Cells Efficacy (human AR; [1]) [%]	AR Antagonist CV-1 Cells Efficacy (human AR; [2])	IC50 (human AR; [3]) [nM]	IC50 (MR) [nM]	AR Agonist CV-1 Cells Efficacy (human AR) [%]	AR Antagonist CV-1 Cells Efficacy (human AR)	IC50 (human AR) [nM]	IC50 (human AR; read-out: AR-wt Potency Antag) [nM]
CC(C)[C@@H]1COc2c(ccc3[nH]c(=O)cc(C(F)(F)F)c23)N1CC(F)(F)Cl [Compound 124, (3R)-4-(2-Chloro-2,2-difluoroethyl)-2,3,4,7-tetrahydro-3-isopropyl-10-(trifluoromethyl)-8H-[1,4]oxazino[2,3-f]quinolin-8-one]	2	70	na (not active (i.e. efficacy of <20 and potency of >10,000 nM for the cotransfection assay)	> 10000	> 10000				
C=CCN1c2ccc3[nH]c(=O)cc(C(F)(F)F)c3c2OC[C@H]1CC [Compound 114, (3R)-4-Allyl-3-ethyl-2,3,4,7-tetrahydro-10-(trifluoromethyl)-8H-[1,4]oxazino[2,3-f]quinolin-8-one]	53	74	na (not active (i.e. efficacy of <20 and potency of >10,000 nM for the cotransfection assay)	> 10000	> 10000				
CC[C@@H]1COc2c(ccc3[nH]c(=O)cc(C(F)(F)F)c23)N1CC(F)(F)F [Compound 110, (3R)-3-Ethyl-2,3,4,7-tetrahydro-4-(2,2,2-trifluoroethyl)-10-(trifluoromethyl)-8H-[1,4]oxazino[2,3-f]quinolin-8-one]	0.6				1270	89	na (key: na: not active (i.e. efficacy of <20 and potency of >10,000 nM for the cotransfection assay)	> 10000	> 10000
